According to patent publication US12714696B2, “Low dose fluralaner compositions for protection against parasitic invertebrate pest” (VIRBAC, priority 2019, dated 2026):
Read-outs that look alike come from different tables or passages of the source.

Columns and labels:
[1] = Pharmacokinetic profile of Bravecto spot-on after single topical administration on dogs; conditions: dog, in vivo, topical or ocular, 6250 ug/kg, Bravecto spot-on single topical 6250 μg/kg
Method: The objective of the study is to determine the pharmacokinetic profile of the Bravecto spot-on containing fluralaner after a single topical administration on dogs at a dose rate of 6250 μg/kg after feeding. • IVP: Investigational Veterinary Product, is Bravecto spot-on containing fluralaner at a dose rate of 6250 μg/kg (22.3112 μL/kg) on Day 0
Ten dogs were enrolled in the study of which six were included meeting the inclusion criteria. In addition, veterinary examinations (Day −14 and Day −2±one day), general health observations (all days) and weighing of all dogs (Day −2±one day) were performed.
On Day 0, all dogs will receive the IVP at a dose rate of 6250 μg/kg. The quantity of IVP to be administered will be calculated according to the dog's individual body weight. Dogs will be observed hourly (±15 minutes) for four hours after administration on Day 0.
Blood specimens will be collected from all dogs on Days −14 and −7 for clinical chemistry and hematology for inclusion and for pharmacokinetic analysis prior to IVP treatment on Day 0 and on Days 1 (+24 hours), 3 (+72 hours), 5 (+120 hours), 7 (+168 hours), 10 (+240 hours), 14 (+336 hours), 21 (+504 hours), 28 (+672 hours), 35 (+840 hours), 42 (+1008 hours), 49 (+1176 hours), 56 (+1344 hours) and 60 (+1440 hours).
The PK parameters of fluralaner were calculated using a non-compartmental approach.
The following rules were applied for the calculation of the PK parameters: • All the plasma concentrations, validated by the bioanalytical laboratory, were used for the PK analysis. • The actual blood sampling times were used throughout. • Concentrations below the Limit of Quantification (LOQ) value were considered as zero from time zero (pre-dose) up to the time at which the first quantifiable concentration above the LOQ value was observed. Concentrations below the LOQ value between two quantifiable concentrations were considered as missing. Trailing concentrations below the LOQ value were not used in calculations.
Cmax the observed maximum concentration in plasma measured after dosing.
tmax the time at which Cmax was apparent.
λz the terminal rate constant (λz) was estimated by log-linear regression analysis on data points visually assessed, to be on the terminal log-linear phase. For the slope of the terminal elimination phase to be accepted as reliable, the following criteria were used: • the terminal data points were apparently randomly distributed about a single straight line (on visual inspection), • a minimum of three data points, including the last measured data point and excluding Cmax, were available for the regression.
t1/2 the terminal plasma half-life (t1/2) was calculated according to the following equation: […]
AUC0-t the area under the concentration-time curve from time zero (pre-dose) to the time of last quantifiable concentration (t) was calculated using a linear trapezoidal method.
[AUC0-∞=AUC0-t+(Ct/λz)], where Ct was the observed concentration of drug for the last sample on the PK profile in which the drug was detected, and λz was as defined above.
The extrapolated area under the curve, expressed as a percentage of the total area, AUCinf, was also calculated as: Area Extra (%)=(AUC0-∞−AUC0-t)/AUC0-∞*100%.

[2] = Adverse event observation, oral study against ticks; assay type: in vivo, beagle dogs; conditions: oral 250/35/600 μg/kg regimen, dogs
Method: Dogs assigned to group 1 received the control product and served as Placebo controls. Dogs were observed hourly±15 minutes for four hours after administration on Day 0 and once daily two hours±15 minutes after Investigational Veterinary Product or control product administration on Days 1, 2 and 3. Observations were conducted for each individual dog.

Rhipicephalus sanguineus = test: Efficacy against ticks on dogs, oral 250/35/600 μg/kg study; assay type: in vivo
[3] = cited from earlier work

Compound `Cc1cc(C2=NOC(c3cc(Cl)cc(Cl)c3)(C(F)(F)F)C2)ccc1C(=O)NCC(=O)NCC(F)(F)F` (stereo not shown) [fluralaner, Fluralaner] has an AUC(0-t) ([1]; dogs without 86D 6FA, n=5, read-out: fluralaner AUC0-t, Mean) of 181 µg·h/mL, a Cmax ([1]; dogs without 86D 6FA, n=5, read-out: fluralaner Cmax, Mean) of 238 ng/mL and a half-life ([1]; dogs without 86D 6FA, n=5, read-out: fluralaner t½ (terminal half-life), Mean (converted)) of 16.2 days. For the same compound, the Cmax ([1]; dogs, read-out: maximum concentration (Cmax), range) was 161 to 353 ng/mL, the half-life ([1]; dogs, read-out: terminal half-life, range) was 14.2 to 20.4 days and the “Adverse Events as a result of the product” value [2] was “No Adverse Events”. For the same compound, the “live ticks, geometric mean, Group 2” value (Rhipicephalus sanguineus; Day 23, oral 250/35/600 μg/kg regimen) was 16.2, the “live ticks, geometric mean, Group 2” value (Rhipicephalus sanguineus; Day 31, oral 250/35/600 μg/kg regimen) was 13.3 and the hepatic clearance ([3]; dogs and cats) was “low hepatic clearance”. For the same compound, the “AUC in cats relative to dogs” value ([3]; topical and iv, 12.5 to 50 mg/kg dogs, 20 to 80 mg/kg cats) was “about half the AUC in dogs”.
